Active and inactive are the calls of the source. No cut-off for these calls is given here.
Test system: CCF-STTG1
Test: Inhibition of apolipoprotein E production in human CCF-STTG1 cells at 10 uM after 24 hrs by ELISA relative to vehicle-treated control
Assay type: functional
Conditions: not given

Q: `c1ccc(CNC(c2ccccc2)(c2ccccc2)c2ccccc2)cc1` was tested. Which inhibition did it give?
A: Active

Q: `c1ccc(C(NC2CCCCC2)(c2ccccc2)c2ccccc2)cc1` was tested. Which inhibition did it give?
A: Active

Q: For `c1ccc(NC(c2ccccc2)(c2ccccc2)c2ccccc2)cc1`, which inhibition is on record?
A: Active

Q: How did the inhibition turn out when `c1ccc(C(c2ccccc2)(c2ccccc2)N2CCCCC2)cc1` was run?
A: Active

Q: For `c1ccc(C(c2ccccc2)(c2ccccc2)N2CCCC2)cc1`, which inhibition is on record?
A: Active

Q: `c1ccc(CN(Cc2ccccc2)C(c2ccccc2)(c2ccccc2)c2ccccc2)cc1` was tested. Which inhibition did it give?
A: Active

Q: `CCN(CC)C(c1ccccc1)(c1ccccc1)c1ccc2ccccc2c1` was tested. Which inhibition did it give?
A: Active

Q: `CN(C)C(c1ccccc1)(c1ccccc1)c1ccc2ccccc2c1` was tested. Which inhibition did it give?
A: Active

Q: For `COc1ccc(C(c2ccccc2)(c2ccccc2)N2CCOCC2)cc1`, which inhibition is on record?
A: Active

Q: For `CCCCN(CCCC)C(c1ccccc1)(c1ccccc1)c1ccc(OC)cc1`, which inhibition is on record?
A: Active

Q: Which inhibition does the source give for `COc1ccc(C(Nc2ccccc2)(c2ccccc2)c2ccccc2)cc1` here?
A: Active

Q: With `c1ccc(C(c2ccccc2)(c2ccccc2)N2CCOCC2)cc1` as the compound, how does the inhibition read?
A: Active

Q: How did the inhibition turn out when `COc1ccc(C(c2ccccc2)(c2ccccc2)N2CCCC2)cc1` was run?
A: Active

Q: `c1ccc(C(c2ccccc2)(c2ccccc2)N2CCNCC2)cc1` was tested. Which inhibition did it give?
A: Active

Q: With `CC(C)CNC(c1ccccc1)(c1ccccc1)c1ccccc1` as the compound, how does the inhibition read?
A: Active

Q: How did the inhibition turn out when `O=C(c1ccccc1)C(O)c1ccccc1` (stereo unspecified) was run?
A: Active

Q: Which inhibition does the source give for `CC(NC(c1ccccc1)(c1ccccc1)c1ccccc1)c1ccccc1` (racemic) here?
A: Active

Q: With `COc1ccc(C(NCc2ccccc2)(c2ccccc2)c2ccccc2)cc1` as the compound, how does the inhibition read?
A: Active

Q: `CCC(C)NC(c1ccccc1)(c1ccccc1)c1ccc(OC)cc1` (stereo unspecified) was tested. Which inhibition did it give?
A: Active

Q: With `CCCCN(CCCC)C(c1ccccc1)(c1ccccc1)c1ccc2ccccc2c1` as the compound, how does the inhibition read?
A: Active

Q: How did the inhibition turn out when `COc1ccc(C(NC2CCCCC2)(c2ccccc2)c2ccccc2)cc1` was run?
A: Active

Q: With `COc1ccc(C(NCC(C)C)(c2ccccc2)c2ccccc2)cc1` as the compound, how does the inhibition read?
A: Active

Q: `CCN(CC)C(c1ccccc1)(c1ccccc1)c1ccccc1` was tested. Which inhibition did it give?
A: Active

Q: With `c1ccc(C(NC2CCCCC2)(c2ccccc2)c2ccc3ccccc3c2)cc1` as the compound, how does the inhibition read?
A: Active

Q: Which inhibition does the source give for `c1ccc(C(c2ccccc2)(c2ccc3ccccc3c2)N2CCCCC2)cc1` here?
A: Active

Q: For `COc1ccc(C(c2ccccc2)(c2ccccc2)N2CCNCC2)cc1`, which inhibition is on record?
A: Active

Q: With `O=C(c1ccccc1)c1ccc(O)cc1` as the compound, how does the inhibition read?
A: Active

Q: `CC(NC(c1ccccc1)(c1ccccc1)c1ccc2ccccc2c1)c1ccccc1` (racemic) was tested. Which inhibition did it give?
A: Active

Q: `O=C(c1ccccc1)c1ccc(OCc2ccccc2)cc1` was tested. Which inhibition did it give?
A: Active

Q: For `CN(C)C(c1ccccc1)(c1ccccc1)c1ccccc1`, which inhibition is on record?
A: Active

Q: For `CCC(C)NC(c1ccccc1)(c1ccccc1)c1ccccc1` (stereo unspecified), which inhibition is on record?
A: Active

Q: For `COc1ccc(C(c2ccccc2)(c2ccccc2)N2CCCCC2)cc1`, which inhibition is on record?
A: Active

Q: With `O=C(c1ccccc1)c1ccccc1` as the compound, how does the inhibition read?
A: Active

Q: How did the inhibition turn out when `CCN(CC)C(c1ccccc1)(c1ccccc1)c1ccc(OC)cc1` was run?
A: Active

Q: With `COc1ccc(C(c2ccccc2)(c2ccccc2)N(C)C)cc1` as the compound, how does the inhibition read?
A: Active

Q: How did the inhibition turn out when `CCCCN(CCCC)C(c1ccccc1)(c1ccccc1)c1ccccc1` was run?
A: Active

Same assay, conditions: CCF-STTG1, 24 h

Q: For `CCC(C)NC(c1ccccc1)(c1ccccc1)c1ccc2ccccc2c1` (stereo unspecified), which inhibition at 10 µM is on record?
A: 66%

Q: How did the inhibition at 10 µM turn out when `CC(C)CNC(c1ccccc1)(c1ccccc1)c1ccc2ccccc2c1` was run?
A: 50%

Q: `c1ccc(C(NCC2CCCCC2)(c2ccccc2)c2ccccc2)cc1` was tested. Which inhibition at 10 µM did it give?
A: 51%

Q: `c1ccc(C(c2ccccc2)(c2ccc3ccccc3c2)N2CCCC2)cc1` was tested. Which inhibition at 10 µM did it give?
A: 46%

Q: Which inhibition at 10 µM does the source give for `c1ccc(C(c2ccccc2)(c2ccc3ccccc3c2)N2CCOCC2)cc1` here?
A: 49%

— ChEMBL document CHEMBL2086307, “Design, synthesis and identification of a new class of triarylmethyl amine compounds as inhibitors of apolipoprotein E production” (2012)
